# Laboratory results taken from PMC6733504, “Effects of flavoring compounds used in electronic cigarette refill liquids on endothelial and vascular function” (PLoS ONE, 2019).
# Where two headings read alike, the source gives them in different places.
# Legend:
# endothelial cells [1] = experiment: LDH release (membrane integrity); settings: 1 mM, 60 minutes; maximum = 1% Triton
# Method: To test for membrane integrity, endothelial cells were assayed for release of lactate dehydrogenase (LDH) into the culture medium. Subsequent to incubation with flavoring compounds (1 mM each) for 1 hour, 20-μl aliquots of the culture media were mixed with 200 μl of reagent buffer (1 mM pyruvate and 0.1 mM NAD^+ in PBS). The decrease in light absorbance at 340 nm was monitored using a diode array spectrophotometer (Hewlett Packard 8452A). Maximum LDH release was determined by treating the cells with 1% Triton X-100.
# endothelial cells [2] = experiment: MTT to formazan conversion (viability); format: cell-based, porcine; settings: 1 mM, 60 minutes
# Method: The viability of endothelial cells was judged by incubation with 1 mM of the flavoring compounds, followed by determination of 3-(4,5-dimethyl-2-thiazolyl)-2,5-diphenyltetrazolium bromide (MTT) to formazan conversion using the Cayman MTT Cell Proliferation Assay Kit purchased through VWR International (Vienna, Austria).
# [3] = target: T1, soluble guanylate cyclase (sGC) (Bos taurus, UniProt P16068+P19687); experiment: Activity of purified sGC stimulated with DEA/NO; format: biochemical, bovine; settings: for Emax of DEA/NO-stimulated sGC activity in presence of flavoring: flavoring 1 mM, DEA/NO 0.01–10 μM
# T1 construct: The activity of sGC purified from bovine lung; from tissue; host or cells: bovine lung
# T1 sequence (P19687 1-691): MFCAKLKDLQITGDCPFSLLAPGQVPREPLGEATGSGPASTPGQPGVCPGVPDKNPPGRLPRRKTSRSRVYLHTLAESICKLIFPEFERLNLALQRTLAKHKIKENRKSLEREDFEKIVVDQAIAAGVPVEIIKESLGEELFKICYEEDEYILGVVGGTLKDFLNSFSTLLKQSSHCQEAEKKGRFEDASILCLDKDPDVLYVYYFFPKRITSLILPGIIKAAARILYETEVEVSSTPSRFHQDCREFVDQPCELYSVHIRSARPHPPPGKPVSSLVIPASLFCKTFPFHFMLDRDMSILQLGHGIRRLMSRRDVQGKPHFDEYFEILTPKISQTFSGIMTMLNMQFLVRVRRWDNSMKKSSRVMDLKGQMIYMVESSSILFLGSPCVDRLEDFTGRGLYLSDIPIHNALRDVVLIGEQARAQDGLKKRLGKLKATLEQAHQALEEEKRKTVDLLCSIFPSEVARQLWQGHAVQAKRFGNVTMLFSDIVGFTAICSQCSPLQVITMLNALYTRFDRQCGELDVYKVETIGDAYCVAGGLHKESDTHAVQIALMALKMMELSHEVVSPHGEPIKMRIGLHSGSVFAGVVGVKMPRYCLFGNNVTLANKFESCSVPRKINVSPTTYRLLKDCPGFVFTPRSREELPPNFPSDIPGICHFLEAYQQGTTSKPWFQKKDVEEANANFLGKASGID
# T1 sequence (P16068 1-619): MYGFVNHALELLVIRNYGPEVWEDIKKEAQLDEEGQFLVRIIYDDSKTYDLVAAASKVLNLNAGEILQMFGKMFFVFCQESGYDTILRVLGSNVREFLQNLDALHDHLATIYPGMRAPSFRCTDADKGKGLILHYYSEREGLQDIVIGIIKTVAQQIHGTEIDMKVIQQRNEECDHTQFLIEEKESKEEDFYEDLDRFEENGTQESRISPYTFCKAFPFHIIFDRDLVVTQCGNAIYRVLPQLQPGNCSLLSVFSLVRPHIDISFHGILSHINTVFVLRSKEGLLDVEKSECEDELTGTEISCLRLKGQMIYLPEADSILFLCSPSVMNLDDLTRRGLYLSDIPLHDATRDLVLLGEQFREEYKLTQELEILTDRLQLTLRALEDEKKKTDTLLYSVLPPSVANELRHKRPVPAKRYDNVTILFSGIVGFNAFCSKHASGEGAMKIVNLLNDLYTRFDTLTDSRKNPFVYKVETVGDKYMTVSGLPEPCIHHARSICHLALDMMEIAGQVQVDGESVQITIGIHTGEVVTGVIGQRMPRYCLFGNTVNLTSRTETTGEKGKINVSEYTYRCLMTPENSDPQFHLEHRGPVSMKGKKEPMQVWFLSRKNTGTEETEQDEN
# Method: The activity of sGC purified from bovine lung was determined as formation of [^32P]cGMP from [α-^32P]GTP. The purified enzyme (50 ng) was incubated at 37°C for 10 min in a final volume of 0.1 ml in the absence or presence of flavorings with the NO donor DEA/NO at concentrations indicated in the figure legends, followed by isolation of [^32P]cGMP and quantification of radioactivity (Cerenkov radiation) in a β counter.
# To test for reversibility of inhibition, sGC (50 ng) was preincubated in the absence or presence of the respective compounds for 5 minutes at 37°C, followed by 50-fold dilution in the assay mixtures and incubation with DEA/NO at 37°C for 10 minutes.
# rat aortic rings = experiment: Effect of flavorings on vascular tone of U-46619 precontracted aortic rings; settings: 95% CI; for EC50: Rattus norvegicus
# Method: Unsexed Sprague-Dawley rats (obtained from Charles River, Sulzfeld, Germany) were housed at the local animal facility in approved cages. […] Animals were euthanized in a box that was gradually filled with CO2 until vital signs had ceased (cessation of respiration and circulation). Subsequently, the thorax of the animals was opened, the thoracic aorta was removed, cleaned from connective tissue and immediately used for assessment of vessel function.
# After equilibration for 60 min at the optimal resting tension of 20 mN, maximal contractile activity was determined with a depolarizing solution containing 60 mM K^+. […] When contraction had reached a stable plateau (~after 20 min) cumulative concentration-response curves were established with flavorings. Where indicated, the effects of the flavorings on vascular tone were tested in the presence of the NOS inhibitor N^G-nitro-L-arginine methyl ester (L-NAME, 0.2 mM).
# Concentration-response curves of different ring segments from a single animal were averaged and counted as an individual experiment.
# [4] = Electrochemical determination of NO released from DEA/NO (NO scavenging); settings: DEA/NO 1 μM
# Method: Scavenging of NO by flavoring compounds was studied with a nitric oxide sensor (ISO-NOP, World Precision Instruments, Berlin, Germany), calibrated with acidified nitrite as described previously. Free NO radical was generated by incubation of DEA/NO (1 μM) in 1 ml of 100 mM phosphate buffer, pH 7.4, in the absence or presence of superoxide dismutase (2500 U/ml) at ambient temperature. At the peak concentration of NO, flavoring compounds (10 μl of DSMO stock solutions) were added, DMSO served as vehicle control.
# [5] = test system: endothelium-denuded rat aortic rings; experiment: cAMP and cGMP levels in endothelium-denuded aortic rings; settings: 10 µM
# Excerpt: 1 S4 Table. […]
# 2 endothelium-denuded rat aortic rings.
# Flavoring (fmol x mg-1) (fmol x mg-1)
# 4 En d o th e liu m-denuded rings, treated with test compounds as described in the
# 5 Materials and methods section of the main text, were freeze-clamped when maximal
# 6 relaxation had been reached. Rings were homogenized in 5% trichloroacetic acid
# 7 and analyzed for cAMP and cGMP by radioimmunoassay. Forskolin and DEA/NO
# 8 were used to induce maximal accumulation of cAMP and cGMP, respectively. Data
# 9 shown are mean values±SEM of 3 (forskolin and DEA/NO) or 6 (basal,
# 10 cinnamaldehyde and eugenol) rings; n.d., not determined, *p<0.05 vs. basal (ANOVA
# 11 and Dunnett's post hoc test).
# [6] = test system: Porcine aortic endothelial cells (endogenous NO/cGMP pathway); experiment: A23187 (Ca2+ ionophore)-induced endothelial cGMP formation; format: cell-based; settings: NNA 0.3 mM
# Method: Porcine aortic endothelial cells were isolated as described and cultured at 37°C, 5% CO2 for up to 3 passages in Dulbecco´s modified Eagle´s medium, containing 10% heat-inactivated fetal calf serum (FCS), 100 U/ml penicillin, 0.1 mg/ml streptomycin, and 1.25 μg/ml amphotericin B. Prior to experiments, cells were subcultured into 24-well plates (determination of cGMP formation) or 6-well plates (determination of L-citrulline formation).
# Accumulation of intracellular 3',5'-cyclic GMP (cGMP) was determined as previously described. Briefly, endothelial cells were washed and preincubated with the compounds to be tested for 15 minutes at 37°C in 50 mM Tris buffer, pH 7.4, containing 100 mM NaCl, 5 mM KCl, 1 mM MgCl2, 2.5 mM CaCl2, 1 mM 3-isobutyl-1-methylxanthine, and 1 μM indomethacin. Reactions were started by addition of the Ca^2+ ionophore A 23187 (final concentration 1 μM) or the NO donor DEA/NO (final concentration 1 μM) and terminated after 4 minutes by removal of the incubation medium and addition of 0.01 M HCl. Within 1 h, intracellular cGMP was completely released into the supernatant and measured by radioimmunoassay.
# [7] = rats, after intravenous cinnamaldehyde; cited from earlier work
# [8] = absence of L-NAME, read-out: EC50 of relaxation of pre-contracted vessels (Control)
# [9] = presence of L-NAME 0.2 mM, read-out: EC50 of relaxation of pre-contracted vessels (L-NAME)
smiles,measurement,setting,value
"CC(=O)c1ccccn1 [Acetylpyridine, 1-(Pyridin-2-yl)ethan-1-one]",LDH release (% of maximum),endothelial cells [1],0.7±0.12 % of maximum
same,Formazan formation (% of control),endothelial cells [2],102±4.4 % of control
same,Emax of DEA/NO-stimulated sGC activity in presence of flavoring,[3],28±0.8 µmol cGMP x min-1 x mg-1
same,EC50,rat aortic rings; [8],3700 µM
same,EC50,rat aortic rings; [9],5600 µM
"O=Cc1ccccc1 [Benzaldehyde, benzaldehyde]",EC50,rat aortic rings; [8],2200 µM
same,EC50,rat aortic rings; [9],2500 µM
"CC(=O)C(C)=O [Diacetyl, Butane-2,3-dione]",LDH release (% of maximum),endothelial cells [1],0.6±0.03 % of maximum
same,Formazan formation (% of control),endothelial cells [2],95±4.6 % of control
same,Effect on recorded NO signal (NO scavenging),[4]; 1 mM,only moderate effects
same,Effect on recorded NO signal (NO scavenging),[4]; 10 mM,pronounced decrease
same,IC50,"[3]; DEA/NO 0.05 μM, 95% CI",290 µM
same,EC50 of relaxation of pre-contracted vessels (Control),rat aortic rings; absence of L-NAME,no effects below 10 mM
"Cc1cnc(C)cn1 [Dimethylpyrazine, 2,5-Dimethylpyrazine]",LDH release (% of maximum),endothelial cells [1],0.9±0.12 % of maximum
same,Formazan formation (% of control),endothelial cells [2],103±3.7 % of control
same,Emax of DEA/NO-stimulated sGC activity in presence of flavoring,[3],27±0.7 µmol cGMP x min-1 x mg-1
same,EC50,rat aortic rings; [8],4200 µM
same,EC50,rat aortic rings; [9],5200 µM
"CC12CCC(CC1)C(C)(C)O2 [Eucalyptol, 1,3,3-Trimethyl-2-oxabicyclo[2.2.2]octane]",LDH release (% of maximum),endothelial cells [1],1.0±0.27 % of maximum
same,Formazan formation (% of control),endothelial cells [2],99±2.0 % of control
same,EC50 of relaxation of pre-contracted vessels (Control),rat aortic rings; absence of L-NAME,no effects below 10 mM
"C=C[C@@]1(C)CC(=O)[C@]2(O)[C@@]3(C)[C@@H](O)CCC(C)(C)[C@@H]3[C@H](O)[C@H](OC(C)=O)[C@@]2(C)O1 [Forskolin, reference compound]",cAMP,[5],9309±488 fmol x mg-1
"CC(=O)OCCC(C)C [Isoamylacetate, 3-Methylbutyl acetate]",LDH release (% of maximum),endothelial cells [1],0.7±0.28 % of maximum
same,Formazan formation (% of control),endothelial cells [2],103±3.8 % of control
same,Emax of DEA/NO-stimulated sGC activity in presence of flavoring,[3],28±0.7 µmol cGMP x min-1 x mg-1
same,EC50 of relaxation of pre-contracted vessels (Control),rat aortic rings; absence of L-NAME,no effects below 10 mM
"CC1CCC(C(C)C)C(O)C1 (centres unmarked) [Menthol, 5-Methyl-2-(propan-2-yl)cyclohexan-1-ol]",LDH release (% of maximum),endothelial cells [1],0.8±0.03 % of maximum
same,Formazan formation (% of control),endothelial cells [2],100±2.9 % of control
same,Emax of DEA/NO-stimulated sGC activity in presence of flavoring,[3],28±0.4 µmol cGMP x min-1 x mg-1
same,EC50,rat aortic rings; [8],1600 µM
same,EC50,rat aortic rings; [9],1400 µM
"N=C(NCCC[C@H](N)C(=O)O)N[N+](=O)[O-] [NNA, N^G-nitro-L-arginine, reference compound]",Effect on A23187-induced cGMP accumulation,[6],completely inhibited
"COc1cc(C=O)ccc1O [Vanillin, 4-Hydroxy-3-methoxybenzaldehyde]",LDH release (% of maximum),endothelial cells [1],1.4±0.72 % of maximum
same,Formazan formation (% of control),endothelial cells [2],109±6.7 % of control
same,Emax of DEA/NO-stimulated sGC activity in presence of flavoring,[3],25±0.6 µmol cGMP x min-1 x mg-1
same,EC50,rat aortic rings; [8],1700 µM
same,EC50,rat aortic rings; [9],1800 µM
O=C(O)/C=C/c1ccccc1 [cinnamic acid],Biological half-life,[7],about 7 minutes
